ChEMBL document CHEMBL1201862, “PubChem BioAssay data set” (2004)
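Following 48 hours of exposure in 96-well plates, responses at five concentrations were used to interpolate endpoints linearly. GI50: concentration for 50% inhibition of growth.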 The source made the active and inactive calls. Rule as the data show it: active = GI50 up to about 1.1 µM and inactive = higher.

Experiments:
Experiment in all cases: NCI tumour cell line growth inhibition, 48 h
IGROV-1 = system: IGROV-1
CCRF-CEM = system: CCRF-CEM
K562 = system: K562
T47D = system: T47D
MDA-MB-231 = system: MDA-MB-231
OVCAR-8 = system: OVCAR-8
OVCAR-5 = system: OVCAR-5
OVCAR-3 = system: OVCAR-3
MDA-MB-435 = system: MDA-MB-435
ACHN = system: ACHN
SK-MEL-5 = system: SK-MEL-5
A549 = system: A549
HCT-15 = system: HCT-15
786-0 = system: 786-0
SN12C = system: SN12C
MOLT-4 = system: MOLT-4
UACC-257 = system: UACC-257
NCI-H226 = system: NCI-H226
SR = system: SR
NCI-H522 = system: NCI-H522
SNB-19 = system: SNB-19
TK-10 = system: TK-10
RPMI-8226 = system: RPMI-8226
DU-145 = system: DU-145
SK-OV-3 = system: SK-OV-3
HT-29 = system: HT-29
LOX IMVI = system: LOX IMVI
M14 = system: M14
HCT-116 = system: HCT-116
BT-549 = system: BT-549
HOP-62 = system: HOP-62
CAKI-1 = system: CAKI-1
SF-295 = system: SF-295
SF-268 = system: SF-268
OVCAR-4 = system: OVCAR-4
MCF7 = system: MCF7
SW-620 = system: SW-620
UACC-62 = system: UACC-62
Malme-3M = system: Malme-3M
Hs-578T = system: Hs-578T
UO-31 = system: UO-31
NCI-H23 = system: NCI-H23
COLO 205 = system: COLO 205
SK-MEL-2 = system: SK-MEL-2
SK-MEL-28 = system: SK-MEL-28
EKVX = system: EKVX
KM12 = system: KM12
HOP-92 = system: HOP-92
SF-539 = system: SF-539
HCC 2998 = system: HCC 2998
NCI/ADR-RES = system: NCI/ADR-RES
SNB-75 = system: SNB-75
U-251 = system: U-251
MDA-N = system: MDA-N
NCI-H460 = system: NCI-H460
PC-3 = system: PC-3

How did the GI50 (IGROV-1) turn out when COc1ccc2c(c1)-c1[nH]c3ccc(OC)cc3c1CC2 was run?
The GI50 was 13.6 µM (inactive).

What about the GI50 (CCRF-CEM) of the same compound?
The GI50 was 14.3 µM (inactive).

And the GI50 (K562)?
Its GI50 is 8.99 µM (inactive).

What about the GI50 (T47D) of the same compound?
The GI50 was 8.05 µM (inactive).

And the GI50 (MDA-MB-231)?
Its GI50 is 17.3 µM (inactive).

And the GI50 (OVCAR-8)?
The GI50 was 13.9 µM (inactive).

And the GI50 (OVCAR-5)?
The GI50 was 14.5 µM (inactive).

And the GI50 (OVCAR-3)?
The GI50 was 17.6 µM (inactive).

What about the GI50 (MDA-MB-435) of the same compound?
The GI50 was 17.4 µM (inactive).

What about the GI50 (ACHN) of the same compound?
The GI50 was 19.6 µM (inactive).

What about the GI50 (SK-MEL-5) of the same compound?
Its GI50 is 13.1 µM (inactive).

What about the GI50 (A549) of the same compound?
Its GI50 is 14.3 µM (inactive).

And the GI50 (HCT-15)?
The GI50 was 10.6 µM.

And the GI50 (786-0)?
Its GI50 is 17.5 µM (inactive).

And the GI50 (SN12C)?
The GI50 was 14.8 µM (inactive).

What about the GI50 (MOLT-4) of the same compound?
The GI50 was 11 µM (inactive).

What about the GI50 (UACC-257) of the same compound?
The GI50 was 17.7 µM (inactive).

And the GI50 (NCI-H226)?
Its GI50 is 11.8 µM (inactive).

And the GI50 (SR)?
The GI50 was 13.6 µM (inactive).

And the GI50 (NCI-H522)?
The GI50 was 4.55 µM (inactive).

What about the GI50 (SNB-19) of the same compound?
The GI50 was 14.8 µM (inactive).

And the GI50 (TK-10)?
Its GI50 is 16.8 µM (inactive).

What about the GI50 (RPMI-8226) of the same compound?
The GI50 was 15.6 µM (inactive).

What about the GI50 (DU-145) of the same compound?
Its GI50 is 17.1 µM (inactive).

And the GI50 (SK-OV-3)?
Its GI50 is 18.6 µM (inactive).

What about the GI50 (HT-29) of the same compound?
Its GI50 is 12.3 µM (inactive).

And the GI50 (LOX IMVI)?
The GI50 was 15.2 µM (inactive).

And the GI50 (M14)?
The GI50 was 15 µM (inactive).

And the GI50 (HCT-116)?
Its GI50 is 17.1 µM (inactive).

What about the GI50 (BT-549) of the same compound?
Its GI50 is 17.7 µM (inactive).

What about the GI50 (HOP-62) of the same compound?
Its GI50 is 16.3 µM (inactive).

And the GI50 (CAKI-1)?
Its GI50 is 18.8 µM (inactive).

And the GI50 (SF-295)?
The GI50 was 13.1 µM (inactive).

And the GI50 (SF-268)?
The GI50 was 14.1 µM (inactive).

And the GI50 (OVCAR-4)?
Its GI50 is 14.9 µM (inactive).

What about the GI50 (MCF7) of the same compound?
The GI50 was 24.9 µM (inactive).

And the GI50 (SW-620)?
Its GI50 is 22.4 µM (inactive).

What about the GI50 (UACC-62) of the same compound?
Its GI50 is 15.1 µM (inactive).

What about the GI50 (Malme-3M) of the same compound?
The GI50 was 15 µM (inactive).

What about the GI50 (Hs-578T) of the same compound?
Its GI50 is 13.4 µM (inactive).

And the GI50 (UO-31)?
The GI50 was 15.2 µM (inactive).

And the GI50 (NCI-H23)?
The GI50 was 12.9 µM (inactive).

What about the GI50 (COLO 205) of the same compound?
Its GI50 is 18 µM (inactive).

What about the GI50 (SK-MEL-2) of the same compound?
The GI50 was 14.5 µM (inactive).

And the GI50 (SK-MEL-28)?
The GI50 was 16.4 µM (inactive).

And the GI50 (EKVX)?
Its GI50 is 7.28 µM (inactive).

What about the GI50 (KM12) of the same compound?
Its GI50 is 4.86 µM (inactive).

And the GI50 (HOP-92)?
Its GI50 is 19.2 µM (inactive).

What about the GI50 (SF-539) of the same compound?
Its GI50 is 18.2 µM (inactive).

What about the GI50 (HCC 2998) of the same compound?
The GI50 was 15.6 µM (inactive).

And the GI50 (NCI/ADR-RES)?
The GI50 was 11.4 µM (inactive).

What about the GI50 (SNB-75) of the same compound?
Its GI50 is 13.5 µM (inactive).

And the GI50 (U-251)?
Its GI50 is 17.3 µM (inactive).

And the GI50 (MDA-N)?
The GI50 was 14.7 µM (inactive).

And the GI50 (NCI-H460)?
The GI50 was 16.3 µM (inactive).

And the GI50 (PC-3)?
Its GI50 is 11.4 µM (inactive).
